Experimental data from ChEMBL document CHEMBL4359905, “Discovery, structural insight, and bioactivities of BY27 as a selective inhibitor of the second bromodomains of BET proteins” (Eur J Med Chem, 2019).

What was measured:
[1] = target: T1, Bromodomain-containing protein 4 (Homo sapiens, UniProt O60885); experiment: Binding affinity to human recombinant BRD4 BD2 (333 to 460 residues) by fluorescence polarization assay
[2] = target: T1, Bromodomain-containing protein 4; experiment: Binding affinity to human recombinant BRD4 BD1 (44 to 168 residues) by fluorescence polarization assay
[3] = target: T2, Bromodomain-containing protein 3 (Homo sapiens, UniProt Q15059); experiment: Selectivity index, ratio of Ki for human recombinant BRD3 BD1 (24 to 144 residues) to Ki for human recombinant BRD3 BD2 (306 to 417 residues)
Target sequence in this assay (Q15059 2-726 limits assumed): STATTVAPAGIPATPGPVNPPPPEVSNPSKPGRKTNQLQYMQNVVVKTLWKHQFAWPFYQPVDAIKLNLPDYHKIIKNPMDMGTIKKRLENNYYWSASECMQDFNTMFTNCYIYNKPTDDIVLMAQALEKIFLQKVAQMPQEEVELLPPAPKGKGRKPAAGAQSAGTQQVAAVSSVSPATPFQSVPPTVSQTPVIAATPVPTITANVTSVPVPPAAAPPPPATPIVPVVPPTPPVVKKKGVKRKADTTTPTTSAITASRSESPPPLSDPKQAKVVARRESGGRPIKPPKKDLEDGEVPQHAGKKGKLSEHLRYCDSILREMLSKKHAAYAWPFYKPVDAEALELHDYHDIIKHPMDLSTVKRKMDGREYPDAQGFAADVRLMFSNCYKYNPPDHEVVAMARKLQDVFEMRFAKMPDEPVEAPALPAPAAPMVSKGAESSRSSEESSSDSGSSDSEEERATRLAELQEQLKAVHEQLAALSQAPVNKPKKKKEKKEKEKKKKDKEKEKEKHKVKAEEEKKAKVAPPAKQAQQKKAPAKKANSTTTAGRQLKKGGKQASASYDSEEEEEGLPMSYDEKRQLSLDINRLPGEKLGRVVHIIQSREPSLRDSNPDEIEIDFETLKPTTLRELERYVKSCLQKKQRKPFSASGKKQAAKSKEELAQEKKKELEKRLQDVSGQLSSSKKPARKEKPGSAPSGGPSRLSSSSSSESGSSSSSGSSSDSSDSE

[4] = target: T3, Bromodomain-containing protein 2 (Homo sapiens, UniProt P25440); experiment: Binding affinity to human recombinant BRD2 BD1 (72 to 205 residues) by fluorescence polarization assay
T3 sequence (P25440 whole entry, the tested form may be a part): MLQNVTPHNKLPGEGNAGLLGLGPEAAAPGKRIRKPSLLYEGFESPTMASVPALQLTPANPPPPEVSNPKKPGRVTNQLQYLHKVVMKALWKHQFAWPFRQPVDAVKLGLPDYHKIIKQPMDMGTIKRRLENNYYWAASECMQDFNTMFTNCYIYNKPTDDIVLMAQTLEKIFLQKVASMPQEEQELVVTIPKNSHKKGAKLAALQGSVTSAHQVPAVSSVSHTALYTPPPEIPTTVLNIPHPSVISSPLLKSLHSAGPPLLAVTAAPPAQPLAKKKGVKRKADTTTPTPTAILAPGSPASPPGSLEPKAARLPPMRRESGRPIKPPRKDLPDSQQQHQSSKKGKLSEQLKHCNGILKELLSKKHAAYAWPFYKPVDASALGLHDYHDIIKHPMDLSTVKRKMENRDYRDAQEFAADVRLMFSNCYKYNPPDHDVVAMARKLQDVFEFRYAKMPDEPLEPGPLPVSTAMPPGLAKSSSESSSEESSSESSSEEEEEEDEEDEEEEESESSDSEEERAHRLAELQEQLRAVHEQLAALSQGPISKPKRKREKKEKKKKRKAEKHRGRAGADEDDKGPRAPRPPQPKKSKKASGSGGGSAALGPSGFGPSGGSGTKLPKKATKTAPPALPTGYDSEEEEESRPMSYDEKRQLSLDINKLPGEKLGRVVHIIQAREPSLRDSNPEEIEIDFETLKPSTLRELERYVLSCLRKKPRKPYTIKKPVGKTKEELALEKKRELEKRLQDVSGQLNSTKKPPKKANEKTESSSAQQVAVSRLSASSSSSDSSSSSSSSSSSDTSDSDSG

[5] = system: MV4-11; experiment: Antiproliferative activity against human MV4-11 cells assessed as cell growth inhibition after 4 days by CCK8 assay; assay type: functional, cell-based; settings: MV4-11, 96 h
[6] = target: T2, Bromodomain-containing protein 3; experiment: Binding affinity to human recombinant BRD3 BD2 (306 to 417 residues) by fluorescence polarization assay
Target sequence in this assay (Q15059 whole entry, the tested form may be a part): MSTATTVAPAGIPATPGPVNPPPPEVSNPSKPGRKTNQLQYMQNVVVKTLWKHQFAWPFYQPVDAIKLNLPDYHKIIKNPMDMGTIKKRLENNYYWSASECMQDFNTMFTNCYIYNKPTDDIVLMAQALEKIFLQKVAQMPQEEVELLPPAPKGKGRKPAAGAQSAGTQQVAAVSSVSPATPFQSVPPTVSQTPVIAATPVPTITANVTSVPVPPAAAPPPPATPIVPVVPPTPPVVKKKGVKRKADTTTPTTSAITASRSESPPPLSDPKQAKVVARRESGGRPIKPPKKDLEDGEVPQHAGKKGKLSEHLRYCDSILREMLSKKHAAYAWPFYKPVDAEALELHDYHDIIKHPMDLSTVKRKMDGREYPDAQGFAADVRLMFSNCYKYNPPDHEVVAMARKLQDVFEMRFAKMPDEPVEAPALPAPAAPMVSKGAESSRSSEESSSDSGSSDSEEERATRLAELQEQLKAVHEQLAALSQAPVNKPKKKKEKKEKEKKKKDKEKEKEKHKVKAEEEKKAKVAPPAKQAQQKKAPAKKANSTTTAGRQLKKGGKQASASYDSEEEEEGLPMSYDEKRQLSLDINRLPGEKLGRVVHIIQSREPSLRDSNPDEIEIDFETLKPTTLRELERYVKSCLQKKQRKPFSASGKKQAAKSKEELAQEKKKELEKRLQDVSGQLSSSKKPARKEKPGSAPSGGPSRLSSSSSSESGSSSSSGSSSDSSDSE

[7] = target: T3, Bromodomain-containing protein 2; experiment: Binding affinity to human recombinant BRD2 BD2 (349 to 460 residues) by fluorescence polarization assay
[8] = system: MM1.S; experiment: Antiproliferative activity against human MM1S cells assessed as cell growth inhibition after 4 days by CCK8 assay; assay type: functional, cell-based; settings: 96 h
[9] = target: T2, Bromodomain-containing protein 3; experiment: Binding affinity to human recombinant BRD3 BD1 (24 to 144 residues) by fluorescence polarization assay
Target sequence in this assay (Q15059 whole entry, the tested form may be a part): as above

[10] = system: HepG2; experiment: Downregulation of ARID5B in human HepG2 cells after 4 hrs by qRT-PCR analysis; assay type: functional, cell-based
[11] = system: HepG2; experiment: Downregulation of G6PC in human HepG2 cells after 4 hrs by qRT-PCR analysis; assay type: functional, cell-based
[12] = system: MV4-11; experiment: Decrease in c-Myc protein expression in human MV4-11 cells incubated for 24 hrs by western blot analysis; assay type: functional, cell-based
[13] = system: MV4-11; experiment: Upregulation of p21 mRNA expression in human MV4-11 cells after 24 hrs by qRT-PCR analysis; assay type: functional, cell-based
[14] = system: MV4-11; experiment: Downregulation of cMyc mRNA expression in human MV4-11 cells after 24 hrs by qRT-PCR analysis; assay type: functional, cell-based
[15] = system: HepG2; experiment: Downregulation of […] in human HepG2 cells after 4 hrs by qRT-PCR analysis; assay type: functional, cell-based
[16] = system: MV4-11; experiment: Increase in p21 protein expression in human MV4-11 cells incubated for 24 hrs by western blot analysis; assay type: functional, cell-based

Cc1nnc2n1-c1ccc(-c3ccc(N)nc3)cc1C(Nc1ccc(F)cc1)CC2 (centres undefined)
Ki [1]: 92.6 nM | Ki [2]: 725 nM

CCn1cc(-c2ccc3c(c2)C(Nc2ccc(Cl)cc2)CCc2nnc(C)n2-3)cn1 (centres undefined)
Ratio Ki [3]: 12 | Ki [4]: 193 nM | Ki [1]: 14.8 nM | IC50 [5]: 94.6 nM | Ki [2]: 77.2 nM | Ki [6]: 8.2 nM | Ki [7]: 8.9 nM | IC50 [8]: 63.5 nM | Ki [9]: 99.7 nM

Cc1nnc2n1-c1ccc(-c3cncs3)cc1C(Nc1ccc(Cl)cc1)CC2 (centres undefined)
Ki [1]: 34.8 nM | IC50 [5]: 374 nM | Ki [2]: 266 nM | IC50 [8]: 345 nM

Cc1nnc2n1-c1ccc(-c3ccc(N)nc3)cc1C(Nc1ccc(C#N)cc1)CC2 (centres undefined)
Ki [1]: 80.6 nM | Ki [2]: 508 nM

Cc1nnc2n1-c1ccc(-c3cn[nH]c3)cc1C(Nc1ccc(Cl)cc1)CC2 (centres undefined)
Ratio Ki [3]: 8 | Ki [4]: 270 nM | Ki [1]: 15.9 nM | IC50 [5]: 99.1 nM | Ki [2]: 126 nM | Ki [6]: 13.9 nM | Ki [7]: 19.1 nM | IC50 [8]: 259 nM | Ki [9]: 114 nM

Cc1sc2c(c1C)C(c1ccc(Cl)cc1)=N[C@@H](CC(=O)Nc1ccc(O)cc1)c1nnc(C)n1-2 [BIRABRESIB]
IC50 [5]: 17.6 nM | inhibition [10]: Dose-dependent effect | inhibition [11]: Dose-dependent effect | inhibition [12]: Dose-dependent effect | Activity [13]: Dose-dependent effect | IC50 [8]: 22.7 nM | inhibition [14]: Dose-dependent effect | inhibition [15]: Dose-dependent effect | Activity [16]: Dose-dependent effect

Cc1nnc2n1-c1ccc(-c3ccc(CCN4CCN(C)CC4)cc3)cc1C(Nc1ccc(Cl)cc1)CC2 (centres undefined)
Ki [1]: 54.4 nM | IC50 [5]: 165 nM | Ki [2]: 372 nM | IC50 [8]: 258 nM

Cc1ccc(NC2CCc3nnc(C)n3-c3ccc(-c4ccc(N)nc4)cc32)cc1 (centres undefined)
Ki [1]: 109 nM | Ki [2]: 540 nM

Cc1nnc2n1-c1ccc(Br)cc1C(Nc1ccc(Cl)cc1)CC2 (racemic)
Ki [1]: 736 nM | IC50 [5]: 2040 nM | Ki [2]: > 2000 nM | IC50 [8]: 5310 nM

Cc1nnc2n1-c1ccc(NC(=O)C3CCN(C)CC3)cc1C(Nc1ccc(Cl)cc1)CC2 (centres undefined)
Ki [1]: 102 nM | IC50 [5]: 2410 nM | Ki [2]: 1490 nM | IC50 [8]: 8510 nM

Cc1nnc2n1-c1ccc(-c3cnn(C)c3)cc1C(Nc1ccc3ccccc3c1)CC2 (centres undefined)
Ki [1]: 24.7 nM | IC50 [5]: 116 nM | Ki [2]: 419 nM | IC50 [8]: 535 nM

Cc1nnc2n1-c1ccc(-c3ccc(CN4CCN(C)CC4)cc3)cc1C(Nc1ccc(Cl)cc1)CC2 (centres undefined)
Ki [1]: 18 nM | IC50 [5]: 112 nM | Ki [2]: 271 nM | IC50 [8]: 241 nM

Cc1nnc2n1-c1ccc(NS(C)(=O)=O)cc1C(Nc1ccc(Cl)cc1)CC2 (centres undefined)
Ki [1]: 918 nM | IC50 [5]: 4820 nM | Ki [2]: 3350 nM | IC50 [8]: 9060 nM

Cc1nnc2n1-c1ccc(-c3cnn(C)c3)cc1[C@@H](Nc1ccc(Cl)cc1)CC2
Ki [1]: 945 nM | IC50 [5]: 7730 nM | Ki [2]: 5000 nM | IC50 [8]: 4240 nM

Cc1nnc2n1-c1ccc(-c3cnc(N)nc3)cc1C(Nc1ccc(Cl)cc1)CC2 (centres undefined)
Ki [1]: 66.2 nM | IC50 [5]: 401 nM | Ki [2]: 726 nM | IC50 [8]: 1020 nM

Cc1nnc2n1-c1ccc(-c3ccc(N)nc3)cc1C(Nc1cccc3ccccc13)CC2 (centres undefined)
Ki [1]: 41.5 nM | Ki [2]: 712 nM

Cc1nnc2n1-c1ccc(-c3ccc(CCCN4CCN(C)CC4)cc3)cc1C(Nc1ccc(Cl)cc1)CC2 (centres undefined)
Ki [1]: 12.3 nM | IC50 [5]: 127 nM | Ki [2]: 81.7 nM | IC50 [8]: 110 nM

Cc1nnc2n1-c1ccc(N)cc1C(Nc1ccc(Cl)cc1)CC2 (centres undefined)
Ki [1]: 1230 nM | IC50 [5]: 4330 nM | Ki [2]: 11100 nM | IC50 [8]: 7950 nM

Cc1nnc2n1-c1ccc(-c3cnn(C)c3)cc1C(Nc1ccc(Cl)cc1)CC2 (centres undefined)
Ratio Ki [3]: 17 | Ki [4]: 275 nM | Ki [1]: 14.8 nM | IC50 [5]: 84.4 nM | Ki [2]: 144 nM | Ki [6]: 11.1 nM | Ki [7]: 9.1 nM | IC50 [8]: 64.4 nM | Ki [9]: 188 nM

Cc1nnc2n1-c1ccc(-c3ccc(N)nc3)cc1C(Nc1ccc(Cl)cc1)CC2 (centres undefined)
Ki [1]: 68.4 nM | Ki [2]: 636 nM

Cc1nnc2n1-c1ccc(C3=CCN(C)CC3)cc1C(Nc1ccc(Cl)cc1)CC2 (centres undefined)
Ki [1]: 413 nM | IC50 [5]: 1780 nM | Ki [2]: 4320 nM | IC50 [8]: 3240 nM

Cc1nnc2n1-c1ccc(-c3ccc(N)nc3)cc1C(Nc1cc(C3CC3)nn1C)CC2 (centres undefined)
Ki [1]: 376 nM | Ki [2]: 1960 nM

Cc1nnc2n1-c1ccc(-c3ccc4c(c3)CCC(=O)N4)cc1C(Nc1ccc(Cl)cc1)CC2 (centres undefined)
Ki [1]: 68.8 nM | IC50 [5]: 143 nM | Ki [2]: 310 nM | IC50 [8]: 132 nM

Cc1nnc2n1-c1ccc(-c3ccc(C(=O)O)cc3)cc1C(Nc1ccc(Cl)cc1)CC2 (centres undefined)
Ki [1]: 47.3 nM | IC50 [5]: 3260 nM | Ki [2]: 247 nM | IC50 [8]: 7060 nM

CC(=O)Nc1ccc2c(c1)C(Nc1ccc(Cl)cc1)CCc1nnc(C)n1-2 (centres undefined)
Ki [1]: 50.3 nM | IC50 [5]: 1030 nM | Ki [2]: 457 nM | IC50 [8]: 1440 nM

Cc1nnc2n1-c1ccc(-c3ccnc(N)c3)cc1C(Nc1ccc(Cl)cc1)CC2 (centres undefined)
Ki [1]: 74.7 nM | IC50 [5]: 500 nM | Ki [2]: 535 nM | IC50 [8]: 345 nM

Cc1nnc2n1-c1ccc(-c3ccc(N4CCN(C)CC4)cc3)cc1C(Nc1ccc(Cl)cc1)CC2 (centres undefined)
Ki [1]: 17.4 nM | IC50 [5]: 70.8 nM | Ki [2]: 115 nM | IC50 [8]: 210 nM

Cc1nnc2n1-c1ccc(-c3ccc(N(C)C)cc3)cc1C(Nc1ccc(Cl)cc1)CC2 (centres undefined)
Ki [1]: 65.4 nM | IC50 [5]: 1950 nM | Ki [2]: 466 nM | IC50 [8]: 1020 nM

Cc1nnc2n1-c1ccc(-c3cnoc3)cc1C(Nc1ccc(Cl)cc1)CC2 (centres undefined)
Ki [1]: 83.7 nM | IC50 [5]: 6560 nM | Ki [2]: 232 nM | IC50 [8]: 7720 nM

Cc1nnc2n1-c1ccc(C3=CCNCC3)cc1C(Nc1ccc(Cl)cc1)CC2 (centres undefined)
Ki [1]: 284 nM | IC50 [5]: 2290 nM | Ki [2]: 4450 nM | IC50 [8]: 5700 nM

Cc1nnc2n1-c1ccc(-c3ccc(N)nc3)cc1C(Nc1cccc(CO)c1)CC2 (centres undefined)
Ki [1]: 128 nM | Ki [2]: 1960 nM

Cc1nnc2n1-c1ccc(-c3ccc(N)nc3)cc1C(Nc1nn(C)c3ccccc13)CC2 (centres undefined)
Ki [1]: 617 nM | Ki [2]: 10600 nM

Cc1nnc2n1-c1ccc(-c3cnn(C)c3)cc1C(Nc1cccc3ccccc13)CC2 (centres undefined)
Ki [1]: 21.3 nM | IC50 [5]: 107 nM | Ki [2]: 294 nM | IC50 [8]: 533 nM

COc1ccc(NC2CCc3nnc(C)n3-c3ccc(-c4ccc(N)nc4)cc32)cc1 (centres undefined)
Ki [1]: 174 nM | Ki [2]: 1910 nM

Cc1nnc2n1-c1ccc(-c3ccc(N)nc3)cc1C(Nc1ccc(C(F)(F)F)cc1)CC2 (centres undefined)
Ki [1]: 147 nM | Ki [2]: 576 nM

COc1ccc2c(c1)C(Nc1ccc(Cl)cc1)CCc1nnc(C)n1-2 (centres undefined)
Ki [1]: 249 nM | IC50 [5]: 1160 nM | Ki [2]: 1300 nM | IC50 [8]: 1400 nM
